Laboratory results as given in patent US12485110B2, “Use of ergothioneine for extending lifespan or improving healthspan” (NANJING NUTRABUILDING BIO-TECH CO., LTD., priority 2022, dated 2025).
“Also recorded” adds a separate entry of the source.

What was measured:
C. elegans [1] = assay: Lifespan assay (Automated Lifespan Machine); assay type: in vivo; conditions: for Maximum lifespan: 95th percentile of lifespans; for Median lifespan: N2 wild type, day 0 = day 1 of adulthood; for Mean lifespan: area under survival curve; for Lifespan / survival relative to vehicle control (in words): 5.0 mM (highest treatment group)
Description: N2 (Bristol) wild type strain has been used in this application.
To prevent chemical modification or metabolism of the test article by the food bacteria, worms were fed on a lawn of UV-killed bacteria (UV-i bacteria). An overnight culture of E. coli strain WP-2 was pelleted, washed, filtered, and irradiated. A suspension of UV-i bacteria was spotted on NGM agar containing Streptomycin to inhibit the growth of contaminating bacteria. The quantity and distribution of food bacteria were calibrated to ensure adequate access to food for the duration of assay while maintaining visibility of the worms.
The ALM used herein is based on the Caenorhabditis elegans lifespan machine published by Stroustrup et. al (Stroustrup, N. et al. The Caenorhabditis elegans Lifespan Machine. Nat Methods 10, 665-670 (2013)), with proprietary modifications to improve temperature stability and image acquisition. The scanner unit consists of a modified EPSON V850 and images are processed and analyzed using the ALM software (see id.). The machine time-of-death calls are trained and validated using the “storyboarding” feature of the ALM software.
The lifespan assay was designed and performed according to published and validated methods (Amrit, F. R. G., Ratnappan, R., Keith, S. A. & Ghazi, A. The C. elegans lifespan assay toolkit. Methods 68, 465-475 (2014)), using a modified version of the Automated Lifespan Machine (Stroustrup, N. et al. The Caenorhabditis elegans Lifespan Machine. Nat Methods 10, 665-670 (2013)). Worms were age synchronized by bleaching and eggs were plated directly onto NGM agar seeded with UV-i bacteria (Day 1, hatch). On Day 3, when the worms had reached the late L4 stage, they were transferred to dishes containing 100 μM 5-Fluorodeoxyuridine (FUdR) to suppress progeny. On day 5, the worms were washed off the dishes, and 30-50 worms were plated on each scanner dish. Plates were immobilized inverted on the bed of an Automated Lifespan Machine which scanned two images per hour of the plates continuously for the next 40 days.
Time of death calls exported from the ALM software was analyzed and plotted using the Lifelines software package developed by Cam Davidson-Pilon et. al (Lifelines Version: v0.25.9). Additional analysis performed using the OASIS2 analysis software (Seong Kyu Han et. al. OASIS 2: online application for survival analysis 2 with features for the analysis of maximal lifespan and healthspan in aging research. Oncotarget. 7:56147-56152. (2016)).
The lifespan assay was initiated by expanding all replicate groups to more than 1000 worms, then synchronizing by bleaching and allowing larval worms to hatch and arrest. To eliminate the effect of bacterial metabolism and growth on lifespan of C. elegans (wild type, and not over express β-amyloid peptide) worms, synchronized worms were only exposed to dead food bacteria. To suppress progeny, worms were transferred to media containing 5-Fluorodeoxyuridine (FUdR) within 54-60 hours post-plating. Worms were inspected 24 and 48 hours after this transfer to confirm infertility. Finally, the worms were inspected for general health and morphology before transferring to scanner plates. The scanner plates were incubated for an additional 2 days and inspected again before loading onto scanners.
To obtain high-resolution lifespan data and eliminate confounding factors such as worm handling and operator bias, lifespan data was collected using an Automated Lifespan Machine (ALM) (Stroustrup, N. et al. The Caenorhabditis elegans Lifespan Machine. Nat Methods 10, 665-670 (2013)). Three biological replicates, derived from synchronizing three independently maintained lines of N2 worms, were distributed across instruments. Images of the worms were then collected for the next 35 days with no interruption or manipulations. Some plates were excluded after quality checks, but plate number and worm count for all replicates exceeded the threshold for statistical significance (Table 1, row 1).

C. elegans [2] = assay: Movement and healthspan analysis (worm activity, morphology, circularity); assay type: in vivo
Description: Worm movement was tracked from the images acquired by the ALM during the lifespan assay. Worm size and movement features were extracted and analyzed using custom software.
To measure healthspan, active worms were identified using the ALM scanner images from the lifespan assay (see Example 2). The worms' spatial location on the plate and their morphology were quantified throughout their lifespan to assess healthspan.
Worm Activity serves as a proxy for animal health. Changes in spatial distribution of the worms between time points is used to derive aggregate movement for the population over time. Worm Activity is described by two complementary measurements of aggregate movement, Centroid Distance and Spatial Distribution: • Centroid Distance calculates a geometric center for each individual worm, and then measures the minimum collective distance that a group of worms moved between time points. It achieves measurement of the changes in spatial distribution between time-points. • Spatial Distribution uses changes in worm contours between time points to measure the changes in the spatial distribution of the worms' bodies. The normalized distribution of these distances in the population provides a measure of how much the group of worms altered their positions and posture on the plate between two time-points.
For both of these Activity metrics, a plot with higher numbers indicates good health, and all measures are normalized to fall between 0 and 1.
Worm morphology is measured from the worm contours detected in the images. In the process of aging, worms become shorter and stouter over time and their shape is an indicator of their overall health and biological age. The Length is calculated from the central spline fitted to the worm contour and Width is measured from each worm's widest point. The worms' posture also changes with age as they lose the ability to maintain an elongated position. Average Circularity measures how close the shape and posture come to being enclosed by a circle.
Each of these measures are obtained by averaging data for all active worms detected on a plate, then averaging across different replicate plates of the same condition. All measurements are based on worms that are still alive and moving at the time of quantification. All measures start when worms are placed on the scanner at day 3 of adulthood.
Average Circularity. The Average Circularity Assay indicates worm heath by describing how closely the shape and posture of the worms is enclosed within a circle. Healthy, active worms maintain an elongated, albeit sinusoidal posture. As unhealthy and aged worms lose muscle function, they increasingly adopt a curled, bunched, or folded state in addition to a stout and wrinkled morphology.

C[N+](C)(C)[C@@H](Cc1c[nH]c(=S)[nH]1)C(=O)[O-] [Ergo, Ergothioneine]
Age in days at 25% mortality (C. elegans [1]; 0.1 mM): 17.97 days
Age in days at 50% mortality (C. elegans [1]; 0.1 mM): 24.16 days
Age in days at 75% mortality (C. elegans [1]; 0.1 mM): 28.15 days
Age in days at 90% mortality (C. elegans [1]; 0.1 mM): 30.83 days
Age in days at 100% mortality (C. elegans [1]; 0.1 mM): 39 days
Dose dependence of lifespan (Kaplan-Meier, FIG. 4A) (C. elegans [1]; 0.1 mM, 0.5 mM and 5.0 mM): dose-dependent increase in lifespan
Maximum lifespan (C. elegans [1]; 0.1 mM): 33.2 days
Median lifespan (C. elegans [1]; 0.1 mM): 24.2 days
Mean lifespan (C. elegans [1]; 0.1 mM): 23.4 days
Age in days at 25% mortality (C. elegans [1]; 0.5 mM): 18.05 days
Age in days at 50% mortality (C. elegans [1]; 0.5 mM): 24.22 days
Age in days at 75% mortality (C. elegans [1]; 0.5 mM): 28.37 days
Age in days at 90% mortality (C. elegans [1]; 0.5 mM): 30.84 days
Age in days at 100% mortality (C. elegans [1]; 0.5 mM): 37.26 days
Maximum lifespan (C. elegans [1]; 0.5 mM): 33.3 days
Median lifespan (C. elegans [1]; 0.5 mM): 24.2 days
Mean lifespan (C. elegans [1]; 0.5 mM): 23.5 days
Age in days at 25% mortality (C. elegans [1]; 5.0 mM): 21.04 days
Age in days at 50% mortality (C. elegans [1]; 5.0 mM): 25.92 days
Age in days at 75% mortality (C. elegans [1]; 5.0 mM): 29.73 days
Age in days at 90% mortality (C. elegans [1]; 5.0 mM): 32.05 days
Age in days at 100% mortality (C. elegans [1]; 5.0 mM): 38.81 days
Lifespan / survival relative to vehicle control (in words) (C. elegans [1]): higher survival than the vehicle control at all timepoints
Lifespan / survival relative to vehicle control (in words) (C. elegans [1]; listed as Ergothioneine): significant positive increase in lifespan; also recorded: statistically significant shift in survival
Lifespan increase compared with Resveratrol positive control (C. elegans [1]; 5.0 mM vs 0.1 mM Resveratrol, log-rank tests): similarly to, but slightly less than the Resveratrol positive control
Maximum lifespan (C. elegans [1]; 5.0 mM): 34.6 days
Median lifespan (C. elegans [1]; 5.0 mM): 25.9 days
Mean lifespan (C. elegans [1]; 5.0 mM): 25.3 days
Aggregate movement (Centroid Distance and Spatial Distribution, FIGS. 5A-5B) (C. elegans [2]; 5 mM, over the duration of lifespan): more vigorous movement
Average circularity (FIG. 7) (C. elegans [2]; ergothioneine-treated worms vs control, peaking at around 16 days): only slight differences
Worm morphology (length, width, area, FIGS. 6A-6C) (C. elegans [2]; up to the 5 mM dosage, over the lifespan): did not produce detectable changes in morphology
